{
  "source": "patent US5403726A",
  "about": "“Enzymatic process for producing a galactosylβ1,3glycal disaccaride using β-galactosidase” (priority 1992, dated 1995)",
  "molecular_target": "β-galactosidase (E. coli) (Escherichia coli, UniProt P00722)",
  "sequence (P00722 whole entry)": "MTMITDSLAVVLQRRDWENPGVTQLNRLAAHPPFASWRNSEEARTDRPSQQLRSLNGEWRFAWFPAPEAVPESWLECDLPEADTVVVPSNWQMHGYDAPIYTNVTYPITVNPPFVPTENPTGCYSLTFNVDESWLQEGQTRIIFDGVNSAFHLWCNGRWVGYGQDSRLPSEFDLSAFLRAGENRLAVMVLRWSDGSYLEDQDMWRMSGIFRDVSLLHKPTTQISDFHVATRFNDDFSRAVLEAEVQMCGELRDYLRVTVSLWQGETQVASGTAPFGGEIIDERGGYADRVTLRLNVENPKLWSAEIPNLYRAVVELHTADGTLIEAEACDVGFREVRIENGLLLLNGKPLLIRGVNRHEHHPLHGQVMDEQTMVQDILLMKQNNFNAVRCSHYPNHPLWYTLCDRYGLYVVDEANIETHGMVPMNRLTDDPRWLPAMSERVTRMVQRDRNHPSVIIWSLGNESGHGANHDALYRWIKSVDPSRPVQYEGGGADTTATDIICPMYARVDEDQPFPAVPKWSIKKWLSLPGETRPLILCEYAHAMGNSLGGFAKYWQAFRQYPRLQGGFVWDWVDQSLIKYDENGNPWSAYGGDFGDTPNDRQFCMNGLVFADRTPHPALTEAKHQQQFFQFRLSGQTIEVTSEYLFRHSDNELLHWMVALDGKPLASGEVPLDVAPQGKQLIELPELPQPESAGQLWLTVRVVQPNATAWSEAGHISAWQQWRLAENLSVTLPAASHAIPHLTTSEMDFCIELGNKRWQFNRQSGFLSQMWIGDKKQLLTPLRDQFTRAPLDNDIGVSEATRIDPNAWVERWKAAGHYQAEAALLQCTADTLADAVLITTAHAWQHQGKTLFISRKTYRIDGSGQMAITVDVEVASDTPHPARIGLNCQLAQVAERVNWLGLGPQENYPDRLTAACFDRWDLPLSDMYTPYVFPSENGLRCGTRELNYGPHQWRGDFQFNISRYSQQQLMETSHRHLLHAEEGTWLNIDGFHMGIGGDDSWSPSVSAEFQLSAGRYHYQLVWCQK",
  "assay": "β-galactosidase-mediated coupling reaction with glycal as potential acceptor",
  "format": "biochemical",
  "settings": "donor GalβpNO2 Ph (Compound 1); no reaction product",
  "source_text": "To increase the yield of disaccharide, activated donors were used illustratively here in the kinetic method of glycosidic bond formation. [Nilsson, I. Trends Biotechnol., 6:256 (1988) and the citations therein]. Disaccharide formation was initially examined using commercially available E. coli β-galactosidase [EC 3.2.1.23] and 4-nitrophenyl β-galactopyranoside (Compound 1) as the galactose donor and glucal (Compound 2) [Hodgson, Biotechnology, 9:609 (1991)] as the acceptor. The reaction was monitored by thin layer chromatograph (TLC). After no additional nitrophenyl galactoside appeared to be consumed (19-26 hours), the reaction was terminated.\nIn a typical procedure, Compound 1 (77 mg, 0.26 mmol) and […] (54 mg, 0.36 mmol) were combined at 25° C. with E. coli β-galactosidase (75 units) in 4 mL of a 0.07 M PIPES/0.2M NaOAc/0.1M EDTA solution at pH 6.5. The progress of the reaction was monitored by TLC (silica gel, 7:2:1 iPrOH--NH4 OH--H2 O). After 26 hours, the solvent was removed in vacuo and the residue treated with acetic anhydride (2 mL) and pyridine (2 mL). After an additional 12 hours, the mixture was concentrated in vacuo and the residue purified by silica gel chromatography (2:3 ethyl acetate-hexanes) to afford a 2.3:1 mixture of β-1,3 and β-1,6 isomers (72 mg, 50 percent). […] The position of the glycoside linkage was unambiguously determined by ^1 H NMR decoupling studies. […]",
  "data": [
    {"compound": "OC[C@H]1OC=C[C@@H](O)[C@H]1O", "note": "[Galactal]", "values": [
      {"measurement": "behaviour as potential acceptor in the β-galactosidase coupling reaction (inhibitor)", "value": "acted as an inhibitor"}
    ]}
  ]
}
